Reference: article PMC8070745, “FEN1 Blockade for Platinum Chemo-Sensitization and Synthetic Lethality in Epithelial Ovarian Cancers” (Cancers, 2021)

System: A2780cis spheroids
Assay: 3D spheroid assay, A2780cis
Type: cell-based, human
Conditions: FEN1i/cisplatin combination vs cisplatin or FEN1i monotherapy
Experimental: with ice cold PBS and fixed in 70% ethanol for 1h at -20°C. After removal of the fixative solution by centrifugation, cells were stained with 2 µg/ml of phospho-Histone (γH2AX) Ser139 (16202A, Millipore, UK) to detect DSBs.
Cell cycle progression: Cells were treated with 20 µg/ml RNase A (12091021, Invitrogen) and then 10 µg/ml Propidium Iodide (P4170, Sigma Aldrich) was added to determine the cell cycle distribution. The samples were analysed on a Beckman-Coulter FC500 flow cytometer using a 488nm laser for excitation and emission data for PI collected using a 620nm bandpass filter (FL3) and a 525nm bandpass filter (FL1) for FITC-anti-phospho-Histone H2A.X.
Apoptosis detection: Annexin V detection kit (556547, BD Biosciences) was used to quantify apoptotic cells. Briefly, cells were trypsinized, washed with PBS and the cellular pellet was re-suspended in Anexin Binding Buffer (1×). […] All the samples were analysed on a Beckman-Coulter FC500 flow cytometer. The percentage of apoptotic cells was determined (late apoptotic = FITC-Annexin V positive, PI positive early apoptotic = FITC-Annexin V positive, PI negative; live cells = FITC-Annexin V negative, PI negative) and compared for untreated and treated samples. […]
To quantify cell viability, LIVE/DEAD Viability/Cytotoxicity Kit (L3224, Thermo Fisher Scientific) was used. […] At least 10 spheroids were measured. […]

Cc1csc2c1c(=O)n(O)c(=O)n2-c1ccccc1 [PTPD, 3-hydroxy-5-methyl-1-phenylthieno [2,3 d]pyrimidine-2,4(1H,3H)-dione]
cell death in 3D-spheroids: increased cell death
